Read-outs that look alike come from different tables or passages of the source.
Tests used:
[1] = solubility; format: physicochemical; settings: monoammonium salt
[2] = tested on: Pseudomonas solanacearum; format: in vivo; settings: scale 0 to 4; for Disease Rating: light infection in controls; for rating: heavy infestation in controls
[3] = tested on: Ascaris lumbricoides var. suum; experiment: anthelmintic test in infected mice, treated feed; format: in vivo; settings: Example 13, 0.05 percent in diet, control 2.66
Text: The feeds were utilized as diets for separate groups of mice, five mice per group. About twelve hours after initiation of the feeding, the mice were infected with Ascaris lumbricoides var. suum ova. Another group of five mice was fed the non-medicated feed to serve as a control but was similarly infected at the same time with Ascaris lumbricoides var. suum. All groups were fed their respective feed and maintained under normal laboratory conditions for a period of eight days, at which time all mice were taken off feed. On the ninth day, all mice were sacrified and the lungs examined to determine the presence, and if present, numbers, of lesions of Ascaris lumbricoides var. suum.
Another evaluation was conducted under the procedures reported in Example II, except that the rates were varied. The results were as follows:
In a further evaluation, the monoammonium salts of A16886I and A16886II were separately evaluated for the control of Ascaris lumbricoides var. suum. The evaluations were conducted in accordance with the procedure reported in Example 11 at a concentration in the diet of 0.05 percent.

[4] = tested on: Xanthomonas vesicatoria; experiment: field trial, bacterial spot control on tomato plants; format: in vivo; settings: for Percent Bacterial Spot Control First Reading: one week; for Percent Bacterial Spot Control Second Reading: two weeks
Protocol: (§1) A mixture of the monoammonium salt of A16886I and the monoammonium salt of A16886II was tested under field conditions for the control of Xanthomonas vesicatoria (bacterial spot) on mature bearing tomato plant. The mixture of the two salts was dispersed in water at a concentration of 100, 200, or 400 parts per million and applied to the plants at the rate of 75 gallons per acre. Application was made with a CO2 sprayer at 50 psi. Plants were sprayed twice, on successive days; after the second spray had dried, all plants were wounded by sand blasting and then within one minute the plants were inoculated with a bacterial inoculum of Xanthomonas vesicatoria. Three days later, a third spray application of the aqueous formulation of A16886 was made. Readings were made one week and two weeks after the last spray treatment. Controls consisted of groups of plants (1) sand blasted and inoculated; (2) sand blasted only; (3) untreated; and (4) treated with streptomycin (on the same three-day spraying schedule, at a concentration of 100, 200, or 400 parts per million of aqueous solution, using a rate of 75 gallons per acre), sand blasted, and inoculated. The results were as set forth in the following table, in which crop injury is reported on a scale of 0-10, with 0 = no injury and 10 = dead plants; and control of bacterial spot is reported on a percentage basis.

[5] = tested on: tomato plant; experiment: field trial, crop injury; format: in vivo; settings: scale 0 = no injury, 10 = dead plants; for Crop Injury Ratings First Reading: one week; for Crop Injury Ratings Second Reading: two weeks
Protocol: as §1

Row | Compound | solubility in acetonitrile and other organic solvents [1] | solubility in lower alkanols [1] | solubility in water [1] | Disease Rating ([2]; Example 7, 10 ppm) | Disease Rating ([2]; Example 7, 100 ppm) | rating ([2]; Example 8, 200 ppm) | rating ([2]; Example 8, 400 ppm) | Average Number of Lung Lesions Per Group [3] | Percent Bacterial Spot Control First Reading ([4]; 100 parts/million) [%] | Percent Bacterial Spot Control Second Reading ([4]; 100 parts/million) [%] | Percent Bacterial Spot Control First Reading ([4]; 200 parts/million) [%] | Percent Bacterial Spot Control Second Reading ([4]; 200 parts/million) [%] | Percent Bacterial Spot Control First Reading ([4]; 400 parts/million) [%] | Percent Bacterial Spot Control Second Reading ([4]; 400 parts/million) [%] | Crop Injury Ratings First Reading ([5]; 100 parts/million) | Crop Injury Ratings Second Reading ([5]; 100 parts/million) | Crop Injury Ratings First Reading ([5]; 200 parts/million) | Crop Injury Ratings Second Reading ([5]; 200 parts/million) | Crop Injury Ratings First Reading ([5]; 400 parts/million) | Crop Injury Ratings Second Reading ([5]; 400 parts/million)
1 | COC1(NC(=O)CCCC(N)C(=O)O)C(=O)N2C(C(=O)O)=C(COC(N)=O)CS[C@@H]21 (some centres unmarked) [A16886I, 7-(5-amino-5-carboxyvaleramido)-3-(carbamoyloxymethyl)-7-methoxy-3-cephem-4-carboxylic acid] | essentially insoluble | slightly soluble | very soluble | 2 | 4 | 4 | 4 | 0.46 |  |  |  |  |  |  |  |  |  |  |  | 
2 | NC(=O)OCC1=C(C(=O)O)N2C(=O)C(NC(=O)CCCC(N)C(=O)O)[C@H]2SC1 (some centres unmarked) [A16886II, 7-(5-amino-5-carboxyvaleramido)-3-(carbamoyloxymethyl)-3-cephem-4-carboxylic acid] | essentially insoluble | slightly soluble | very soluble | 1 | 4 |  |  | 0.20 |  |  |  |  |  |  |  |  |  |  |  | 
3 | [H]/N=C(/N)N[C@H]1[C@H](O)[C@@H](O)[C@H](O[C@@H]2O[C@@H](C)[C@](O)(C=O)[C@H]2O[C@@H]2O[C@@H](CO)[C@H](O)[C@@H](O)[C@@H]2NC)[C@@H](N/C(N)=N\[H])[C@@H]1O [Streptomycin] |  |  |  |  |  |  |  |  | 83 | 57 | 81 | 37 | 83 | 59 | 0 | 0 | 0 | 0 | 0 | 0
